Experimental data: patent US10815230B2, “Casein kinase 1 delta inhibitor” (ELECTROPHORETICS LIMITED, priority 2015, dated 2020)

Assays:
Assay in all cases: KINOMEscan binding assay
Settings in all cases: read-out: % Ctrl @ 10000 nM
SBK1 = SBK1 (Homo sapiens, UniProt Q52WX2)
MEK6 = MEK6 (Homo sapiens, UniProt P52564)
WEE2 = molecular target: T1, WEE2 (Homo sapiens, UniProt P0C1S8)
T1 construct: purchased DiscoveRx (KINOMEscan, LeadHunter Discovery services)

PIP5K1C = PIP5K1C (Homo sapiens, UniProt O60331)
Chain of PIP5K1C (O60331 whole entry): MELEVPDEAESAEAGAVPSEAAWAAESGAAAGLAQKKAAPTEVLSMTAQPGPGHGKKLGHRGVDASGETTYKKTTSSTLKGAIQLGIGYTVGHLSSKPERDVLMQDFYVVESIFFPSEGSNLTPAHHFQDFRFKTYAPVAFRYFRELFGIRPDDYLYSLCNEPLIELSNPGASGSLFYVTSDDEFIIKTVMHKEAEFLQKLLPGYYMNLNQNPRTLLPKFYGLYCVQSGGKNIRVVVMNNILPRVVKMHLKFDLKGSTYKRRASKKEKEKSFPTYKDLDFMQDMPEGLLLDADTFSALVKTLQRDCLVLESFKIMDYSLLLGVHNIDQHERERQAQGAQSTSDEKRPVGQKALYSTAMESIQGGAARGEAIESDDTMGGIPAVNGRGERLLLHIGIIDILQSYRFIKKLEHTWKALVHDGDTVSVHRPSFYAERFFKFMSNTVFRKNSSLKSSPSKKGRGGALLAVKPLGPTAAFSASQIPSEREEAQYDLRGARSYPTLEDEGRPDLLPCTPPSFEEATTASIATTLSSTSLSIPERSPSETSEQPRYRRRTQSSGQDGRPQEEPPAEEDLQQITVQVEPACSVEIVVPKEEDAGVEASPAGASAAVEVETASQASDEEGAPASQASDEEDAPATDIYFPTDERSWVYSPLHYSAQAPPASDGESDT

PKAC-beta = PKAC-beta (Homo sapiens, UniProt P22694)
HIPK1 = HIPK1 (Homo sapiens, UniProt Q86Z02)
Chain of HIPK1 (Q86Z02 whole entry): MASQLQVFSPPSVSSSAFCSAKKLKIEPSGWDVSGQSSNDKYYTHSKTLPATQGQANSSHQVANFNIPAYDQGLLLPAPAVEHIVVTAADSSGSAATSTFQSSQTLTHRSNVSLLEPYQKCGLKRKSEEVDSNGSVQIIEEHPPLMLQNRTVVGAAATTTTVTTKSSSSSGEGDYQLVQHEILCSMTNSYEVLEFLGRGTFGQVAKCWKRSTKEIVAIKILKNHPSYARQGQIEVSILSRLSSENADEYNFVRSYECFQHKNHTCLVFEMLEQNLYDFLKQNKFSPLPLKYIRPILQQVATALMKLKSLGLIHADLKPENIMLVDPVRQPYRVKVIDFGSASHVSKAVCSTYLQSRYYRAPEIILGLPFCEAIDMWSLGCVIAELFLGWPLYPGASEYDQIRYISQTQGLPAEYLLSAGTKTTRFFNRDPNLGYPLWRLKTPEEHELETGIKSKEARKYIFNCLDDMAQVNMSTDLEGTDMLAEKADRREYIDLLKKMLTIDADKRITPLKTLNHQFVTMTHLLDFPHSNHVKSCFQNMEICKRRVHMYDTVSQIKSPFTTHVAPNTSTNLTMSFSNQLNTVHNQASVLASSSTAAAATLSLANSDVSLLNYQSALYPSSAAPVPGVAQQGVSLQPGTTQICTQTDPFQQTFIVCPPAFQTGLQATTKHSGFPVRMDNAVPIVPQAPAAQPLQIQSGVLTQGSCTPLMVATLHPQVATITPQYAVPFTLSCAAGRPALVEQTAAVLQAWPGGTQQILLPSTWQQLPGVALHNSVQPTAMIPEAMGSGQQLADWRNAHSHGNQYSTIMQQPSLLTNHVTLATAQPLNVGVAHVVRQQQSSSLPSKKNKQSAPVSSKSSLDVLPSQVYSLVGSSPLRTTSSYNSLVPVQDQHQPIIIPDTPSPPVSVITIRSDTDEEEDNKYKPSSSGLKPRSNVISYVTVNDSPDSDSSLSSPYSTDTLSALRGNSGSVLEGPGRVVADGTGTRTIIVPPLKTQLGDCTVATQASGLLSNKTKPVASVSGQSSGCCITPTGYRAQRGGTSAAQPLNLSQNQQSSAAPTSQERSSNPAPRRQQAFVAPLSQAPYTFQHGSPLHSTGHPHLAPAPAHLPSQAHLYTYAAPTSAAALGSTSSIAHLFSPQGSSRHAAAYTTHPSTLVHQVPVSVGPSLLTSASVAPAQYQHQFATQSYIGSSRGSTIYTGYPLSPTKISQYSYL

PKN1 = PKN1 (Homo sapiens, UniProt Q16512)
Chain of PKN1 (Q16512 whole entry): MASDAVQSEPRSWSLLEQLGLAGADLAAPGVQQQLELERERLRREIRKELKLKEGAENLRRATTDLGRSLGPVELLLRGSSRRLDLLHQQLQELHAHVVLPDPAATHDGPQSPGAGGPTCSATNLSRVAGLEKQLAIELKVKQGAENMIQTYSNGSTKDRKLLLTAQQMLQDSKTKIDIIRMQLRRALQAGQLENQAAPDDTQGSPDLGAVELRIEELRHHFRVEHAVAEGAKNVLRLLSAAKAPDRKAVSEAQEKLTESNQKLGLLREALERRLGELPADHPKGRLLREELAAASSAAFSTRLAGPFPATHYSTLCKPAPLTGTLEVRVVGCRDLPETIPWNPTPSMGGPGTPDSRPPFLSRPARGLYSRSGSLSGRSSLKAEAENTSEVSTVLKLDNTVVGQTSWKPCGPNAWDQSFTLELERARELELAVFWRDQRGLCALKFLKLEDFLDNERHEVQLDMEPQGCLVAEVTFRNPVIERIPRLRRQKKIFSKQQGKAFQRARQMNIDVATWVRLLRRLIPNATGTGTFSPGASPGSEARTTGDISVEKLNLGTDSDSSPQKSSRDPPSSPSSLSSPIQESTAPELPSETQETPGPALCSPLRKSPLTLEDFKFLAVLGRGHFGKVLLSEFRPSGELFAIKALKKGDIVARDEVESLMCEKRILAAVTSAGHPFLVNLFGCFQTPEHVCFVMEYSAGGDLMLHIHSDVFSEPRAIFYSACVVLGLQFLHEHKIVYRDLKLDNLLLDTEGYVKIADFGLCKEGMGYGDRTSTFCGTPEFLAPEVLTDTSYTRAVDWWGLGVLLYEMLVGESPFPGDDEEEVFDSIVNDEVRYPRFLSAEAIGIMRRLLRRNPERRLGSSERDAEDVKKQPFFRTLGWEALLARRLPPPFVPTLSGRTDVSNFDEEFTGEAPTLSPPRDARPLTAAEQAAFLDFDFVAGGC

[1] = molecular target: RSK3 Kin.Dom.2-C-terminal (Homo sapiens, UniProt Q15349)
Chain of RSK3 Kin.Dom.2-C-terminal (Q15349 415-672 limits assumed): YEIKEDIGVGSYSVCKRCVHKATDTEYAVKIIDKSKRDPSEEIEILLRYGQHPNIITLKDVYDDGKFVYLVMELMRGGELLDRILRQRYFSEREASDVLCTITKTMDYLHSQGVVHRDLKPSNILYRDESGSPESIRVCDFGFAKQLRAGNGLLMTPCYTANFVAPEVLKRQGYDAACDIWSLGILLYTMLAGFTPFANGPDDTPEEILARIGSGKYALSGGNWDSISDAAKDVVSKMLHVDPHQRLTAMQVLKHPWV

[2] = molecular target: ABL1 (T315I) non-phosphorylated (Homo sapiens, UniProt P00519, T315I)
CSNK2A1 = CSNK2A1 (Homo sapiens, UniProt P68400)
PRKD1 = PRKD1 (Homo sapiens, UniProt Q15139)
CDK8 = CDK8 (Homo sapiens, UniProt P49336)
YANK1 = molecular target: T2, YANK1 (Homo sapiens, UniProt Q8WU08)
T2 construct: purchased DiscoveRx (KINOMEscan, LeadHunter Discovery services)

RET (M918T) = RET (M918T) (Homo sapiens, UniProt P07949, M918T)
LKB1 = molecular target: T3, LKB1 (Homo sapiens, UniProt Q15831)
T3 construct: T7 phage fusion (most assays) or DNA label after HEK293 expression; purchased DiscoveRx (KINOMEscan, LeadHunter Discovery services); host or cells: T7 phage in E. coli (BL21-derived) or HEK293

TIE1 = TIE1 (Homo sapiens, UniProt P35590)
Chain of TIE1 (P35590 22-1138): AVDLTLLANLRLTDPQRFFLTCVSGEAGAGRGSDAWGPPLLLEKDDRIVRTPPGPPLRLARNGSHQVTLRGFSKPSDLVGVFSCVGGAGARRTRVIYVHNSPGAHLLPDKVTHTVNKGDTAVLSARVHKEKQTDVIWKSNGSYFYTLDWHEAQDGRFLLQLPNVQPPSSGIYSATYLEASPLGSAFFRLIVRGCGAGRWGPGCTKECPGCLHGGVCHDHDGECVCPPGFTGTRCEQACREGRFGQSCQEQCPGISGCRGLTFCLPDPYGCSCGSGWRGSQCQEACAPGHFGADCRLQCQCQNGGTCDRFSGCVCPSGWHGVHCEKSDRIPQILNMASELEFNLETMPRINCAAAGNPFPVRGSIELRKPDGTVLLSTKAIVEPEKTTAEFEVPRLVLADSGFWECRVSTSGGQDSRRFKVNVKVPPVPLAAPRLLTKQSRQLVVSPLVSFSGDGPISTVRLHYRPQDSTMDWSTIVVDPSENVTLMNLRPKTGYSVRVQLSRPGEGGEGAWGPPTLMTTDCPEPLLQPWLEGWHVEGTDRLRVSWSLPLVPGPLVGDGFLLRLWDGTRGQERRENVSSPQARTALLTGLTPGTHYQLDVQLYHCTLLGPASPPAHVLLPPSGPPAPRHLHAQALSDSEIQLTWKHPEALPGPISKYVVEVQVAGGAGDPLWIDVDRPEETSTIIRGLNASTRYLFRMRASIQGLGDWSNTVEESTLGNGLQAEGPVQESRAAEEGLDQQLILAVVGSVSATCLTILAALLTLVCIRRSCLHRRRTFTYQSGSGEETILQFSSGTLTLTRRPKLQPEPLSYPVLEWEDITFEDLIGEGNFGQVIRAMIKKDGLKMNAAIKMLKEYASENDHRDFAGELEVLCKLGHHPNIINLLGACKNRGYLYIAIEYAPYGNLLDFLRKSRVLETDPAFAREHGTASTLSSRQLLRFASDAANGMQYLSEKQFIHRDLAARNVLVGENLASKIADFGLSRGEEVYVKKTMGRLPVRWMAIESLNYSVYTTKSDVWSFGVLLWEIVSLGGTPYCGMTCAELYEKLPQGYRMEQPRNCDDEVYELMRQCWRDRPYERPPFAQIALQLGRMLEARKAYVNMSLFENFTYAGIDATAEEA

PIK3CA (Q546K) = PIK3CA (Q546K) (Homo sapiens, UniProt P42336, Q546K)
BRK = BRK (Homo sapiens, UniProt Q13882)
DYRK1A = DYRK1A (Homo sapiens, UniProt Q13627)
MAP3K15 = molecular target: T4, MAP3K15 (Homo sapiens, UniProt Q6ZN16)
T4 construct: T7 phage fusion (most assays) or DNA label after HEK293 expression; purchased DiscoveRx (KINOMEscan, LeadHunter Discovery services); host or cells: T7 phage in E. coli (BL21-derived) or HEK293

LZK = molecular target: T5, LZK (Homo sapiens, UniProt O43283)
T5 construct: T7 phage fusion (most assays) or DNA label after HEK293 expression; purchased DiscoveRx (KINOMEscan, LeadHunter Discovery services); host or cells: T7 phage in E. coli (BL21-derived) or HEK293

PDGFRA = PDGFRA (Homo sapiens, UniProt P16234)
FLT3 (N841I) = FLT3 (N841I) (Homo sapiens, UniProt P36888, N841I)
WNK3 = molecular target: T6, WNK3 (Homo sapiens, UniProt Q9BYP7)
T6 construct: purchased DiscoveRx (KINOMEscan, LeadHunter Discovery services)

EIF2AK1 = EIF2AK1 (Homo sapiens, UniProt Q9BQI3)
VRK2 = molecular target: T7, VRK2 (Homo sapiens, UniProt Q86Y07)
T7 construct: purchased DiscoveRx (KINOMEscan, LeadHunter Discovery services)

DCAMKL2 = DCAMKL2 (Homo sapiens, UniProt Q8N568)
CDK7 = CDK7 (Homo sapiens, UniProt P50613)
PRKCI = PRKCI (Homo sapiens, UniProt P41743)
MAP3K4 = molecular target: T8, MAP3K4 (Homo sapiens, UniProt Q9Y6R4)
T8 construct: T7 phage fusion (most assays) or DNA label after HEK293 expression; purchased DiscoveRx (KINOMEscan, LeadHunter Discovery services); host or cells: T7 phage in E. coli (BL21-derived) or HEK293

[3] = molecular target: ABL1 (H396P) phosphorylated (Homo sapiens, UniProt P00519, H396P)
MAP4K3 = molecular target: T9, MAP4K3 (Homo sapiens, UniProt Q8IVH8)
T9 construct: T7 phage fusion (most assays) or DNA label after HEK293 expression; purchased DiscoveRx (KINOMEscan, LeadHunter Discovery services); host or cells: T7 phage in E. coli (BL21-derived) or HEK293
T9 sequence (Q8IVH8 whole entry, the tested form may be a part): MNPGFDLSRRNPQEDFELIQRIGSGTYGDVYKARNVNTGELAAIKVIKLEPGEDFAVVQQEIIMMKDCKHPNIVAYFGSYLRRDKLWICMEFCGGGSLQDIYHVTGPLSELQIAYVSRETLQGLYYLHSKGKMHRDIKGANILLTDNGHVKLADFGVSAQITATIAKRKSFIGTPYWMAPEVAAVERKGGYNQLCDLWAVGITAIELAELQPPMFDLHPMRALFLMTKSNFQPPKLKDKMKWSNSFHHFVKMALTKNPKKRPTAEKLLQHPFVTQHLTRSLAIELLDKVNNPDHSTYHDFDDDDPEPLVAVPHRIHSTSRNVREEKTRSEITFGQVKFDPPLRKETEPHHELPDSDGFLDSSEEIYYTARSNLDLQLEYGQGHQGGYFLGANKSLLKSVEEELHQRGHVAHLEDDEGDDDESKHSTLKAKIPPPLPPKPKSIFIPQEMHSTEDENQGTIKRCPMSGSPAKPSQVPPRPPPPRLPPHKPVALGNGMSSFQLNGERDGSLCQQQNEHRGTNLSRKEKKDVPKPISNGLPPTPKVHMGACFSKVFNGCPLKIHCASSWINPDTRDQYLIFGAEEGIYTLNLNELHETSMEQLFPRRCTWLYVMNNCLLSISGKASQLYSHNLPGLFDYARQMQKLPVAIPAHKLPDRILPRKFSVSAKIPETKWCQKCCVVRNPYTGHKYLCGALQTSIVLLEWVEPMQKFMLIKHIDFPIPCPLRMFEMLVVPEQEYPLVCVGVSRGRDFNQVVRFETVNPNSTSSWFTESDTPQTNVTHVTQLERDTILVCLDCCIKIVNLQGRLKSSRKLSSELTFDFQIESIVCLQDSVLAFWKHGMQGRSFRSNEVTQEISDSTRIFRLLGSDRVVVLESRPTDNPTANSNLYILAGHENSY

ACVR2B = ACVR2B (Homo sapiens, UniProt Q13705)
p38-delta = p38-delta (Homo sapiens, UniProt O15264)
ERK4 = ERK4 (Homo sapiens, UniProt P31152)
PIK3CB = PIK3CB (Homo sapiens, UniProt P42338)
CSNK1D = CSNK1D (Homo sapiens, UniProt P48730)
EGFR E746-A750del = EGFR E746-A750del (Homo sapiens, UniProt P00533, DEL746-750)
CDK2 = CDK2 (Homo sapiens, UniProt P24941)
PRKCE = PRKCE (Homo sapiens, UniProt Q02156)
PRKG2 = PRKG2 (Homo sapiens, UniProt Q13237)

Nc1ncc(-c2nc3ccccc3o2)c(-c2ccncc2)n1 [Comparative Compound 324, 5-(1,3-benzoxazol-2-yl)-4-(pyridine-4-yl)pyrimidin-2-amine]
remaining binding at 10 µM (SBK1): 83% | remaining binding at 10 µM (MEK6): 98% | remaining binding at 10 µM (WEE2): 100% | remaining binding at 10 µM (PIP5K1C): 75% | remaining binding at 10 µM (PKAC-beta): 95% | remaining binding at 10 µM (HIPK1): 64% | remaining binding at 10 µM (PKN1): 100% | remaining binding at 10 µM [1]: 100% | remaining binding at 10 µM [2]: 96% | remaining binding at 10 µM (CSNK2A1): 56% | remaining binding at 10 µM (PRKD1): 100% | remaining binding at 10 µM (CDK8): 100% | remaining binding at 10 µM (YANK1): 66% | remaining binding at 10 µM (RET (M918T)): 88% | remaining binding at 10 µM (LKB1): 85% | remaining binding at 10 µM (TIE1): 100% | remaining binding at 10 µM (PIK3CA (Q546K)): 90% | remaining binding at 10 µM (BRK): 99% | remaining binding at 10 µM (DYRK1A): 87% | remaining binding at 10 µM (MAP3K15): 100% | remaining binding at 10 µM (LZK): 89% | remaining binding at 10 µM (PDGFRA): 86% | remaining binding at 10 µM (FLT3 (N841I)): 83% | remaining binding at 10 µM (WNK3): 89% | remaining binding at 10 µM (EIF2AK1): 83% | remaining binding at 10 µM (VRK2): 86% | remaining binding at 10 µM (DCAMKL2): 99% | remaining binding at 10 µM (CDK7): 70% | remaining binding at 10 µM (PRKCI): 65% | remaining binding at 10 µM (MAP3K4): 51% | remaining binding at 10 µM [3]: 98% | remaining binding at 10 µM (MAP4K3): 100% | remaining binding at 10 µM (ACVR2B): 100% | remaining binding at 10 µM (p38-delta): 90% | remaining binding at 10 µM (ERK4): 90% | remaining binding at 10 µM (PIK3CB): 100% | remaining binding at 10 µM (CSNK1D): 3.8% | remaining binding at 10 µM (EGFR E746-A750del): 80% | remaining binding at 10 µM (CDK2): 100% | remaining binding at 10 µM (PRKCE): 95% | remaining binding at 10 µM (PRKG2): 82%

CNc1c(C(N)=O)c2ccccn2c1C(=O)c1ccc(F)cc1 [Compound A, 2-methyl-amino-3-[(4-fluorophenyl)carbonyl]indolizine-1-carboxamide]
remaining binding at 10 µM (SBK1): 77% | remaining binding at 10 µM (MEK6): 73% | remaining binding at 10 µM (WEE2): 100% | remaining binding at 10 µM (PIP5K1C): 67% | remaining binding at 10 µM (PKAC-beta): 63% | remaining binding at 10 µM (HIPK1): 51% | remaining binding at 10 µM (PKN1): 88% | remaining binding at 10 µM [1]: 68% | remaining binding at 10 µM [2]: 89% | remaining binding at 10 µM (CSNK2A1): 53% | remaining binding at 10 µM (PRKD1): 100% | remaining binding at 10 µM (CDK8): 99% | remaining binding at 10 µM (YANK1): 81% | remaining binding at 10 µM (RET (M918T)): 56% | remaining binding at 10 µM (LKB1): 85% | remaining binding at 10 µM (TIE1): 95% | remaining binding at 10 µM (PIK3CA (Q546K)): 93% | remaining binding at 10 µM (BRK): 92% | remaining binding at 10 µM (DYRK1A): 74% | remaining binding at 10 µM (MAP3K15): 94% | remaining binding at 10 µM (LZK): 100% | remaining binding at 10 µM (PDGFRA): 89% | remaining binding at 10 µM (FLT3 (N841I)): 87% | remaining binding at 10 µM (WNK3): 75% | remaining binding at 10 µM (EIF2AK1): 86% | remaining binding at 10 µM (VRK2): 35% | remaining binding at 10 µM (DCAMKL2): 82% | remaining binding at 10 µM (CDK7): 56% | remaining binding at 10 µM (PRKCI): 69% | remaining binding at 10 µM (MAP3K4): 35% | remaining binding at 10 µM [3]: 49% | remaining binding at 10 µM (MAP4K3): 100% | remaining binding at 10 µM (ACVR2B): 100% | remaining binding at 10 µM (p38-delta): 85% | remaining binding at 10 µM (ERK4): 78% | remaining binding at 10 µM (PIK3CB): 100% | remaining binding at 10 µM (CSNK1D): 1.4% | remaining binding at 10 µM (EGFR E746-A750del): 25% | remaining binding at 10 µM (CDK2): 85% | remaining binding at 10 µM (PRKCE): 96% | remaining binding at 10 µM (PRKG2): 76%
